The results in this text go back to ChEMBL document CHEMBL1201862, “PubChem BioAssay data set” (2004).

For assay [1], the target named is ATP-dependent molecular chaperone HSP82 (Candida albicans (strain WO-1) (Yeast), UniProt C4YTQ8). The assay is described as follows: loss of DOC-induced GRE-beta-galactosidase reporter signal, dose response, Hsp90 inhibitor project, S. cerevisiae, luminescence (AID 2400).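 Further: beta-galactosidase luminescence from glucocorticoid response element reporter as proxy for Hsp90 function; inhibitor potency where signal loss means Hsp90 inhibition.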 Format: functional, cell-based.
Sequence of ATP-dependent molecular chaperone HSP82 (C4YTQ8 whole entry): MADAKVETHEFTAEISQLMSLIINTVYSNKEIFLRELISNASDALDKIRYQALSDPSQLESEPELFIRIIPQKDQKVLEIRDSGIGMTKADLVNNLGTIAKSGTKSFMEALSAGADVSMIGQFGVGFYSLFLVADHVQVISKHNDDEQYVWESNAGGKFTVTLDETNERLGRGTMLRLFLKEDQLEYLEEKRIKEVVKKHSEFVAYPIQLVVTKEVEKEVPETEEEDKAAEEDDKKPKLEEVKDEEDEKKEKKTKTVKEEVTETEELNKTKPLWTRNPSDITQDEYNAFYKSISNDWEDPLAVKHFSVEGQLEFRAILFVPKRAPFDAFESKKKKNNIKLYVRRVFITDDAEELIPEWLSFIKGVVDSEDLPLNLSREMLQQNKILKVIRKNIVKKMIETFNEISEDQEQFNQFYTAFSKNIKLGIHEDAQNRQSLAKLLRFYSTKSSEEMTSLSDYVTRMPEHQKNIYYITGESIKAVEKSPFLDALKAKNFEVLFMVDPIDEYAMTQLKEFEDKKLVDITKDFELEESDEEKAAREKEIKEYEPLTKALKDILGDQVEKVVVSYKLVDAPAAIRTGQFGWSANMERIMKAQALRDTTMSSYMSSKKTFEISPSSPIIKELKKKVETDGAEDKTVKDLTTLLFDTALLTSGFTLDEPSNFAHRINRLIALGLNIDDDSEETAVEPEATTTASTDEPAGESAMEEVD
The nature of assay [2]: C. albicans growth with fluconazole, confirmation, fluorescence, retest (AID 2467). Format: functional, cell-based.
Assay [3] concerns the target T1, Serine/threonine-protein phosphatase (Candida dubliniensis (strain CD36 / CBS 7987 / NCPF 3949 / NRRLY-17841) (Yeast), UniProt B9W6M3).
T1 sequence (B9W6M3 whole entry): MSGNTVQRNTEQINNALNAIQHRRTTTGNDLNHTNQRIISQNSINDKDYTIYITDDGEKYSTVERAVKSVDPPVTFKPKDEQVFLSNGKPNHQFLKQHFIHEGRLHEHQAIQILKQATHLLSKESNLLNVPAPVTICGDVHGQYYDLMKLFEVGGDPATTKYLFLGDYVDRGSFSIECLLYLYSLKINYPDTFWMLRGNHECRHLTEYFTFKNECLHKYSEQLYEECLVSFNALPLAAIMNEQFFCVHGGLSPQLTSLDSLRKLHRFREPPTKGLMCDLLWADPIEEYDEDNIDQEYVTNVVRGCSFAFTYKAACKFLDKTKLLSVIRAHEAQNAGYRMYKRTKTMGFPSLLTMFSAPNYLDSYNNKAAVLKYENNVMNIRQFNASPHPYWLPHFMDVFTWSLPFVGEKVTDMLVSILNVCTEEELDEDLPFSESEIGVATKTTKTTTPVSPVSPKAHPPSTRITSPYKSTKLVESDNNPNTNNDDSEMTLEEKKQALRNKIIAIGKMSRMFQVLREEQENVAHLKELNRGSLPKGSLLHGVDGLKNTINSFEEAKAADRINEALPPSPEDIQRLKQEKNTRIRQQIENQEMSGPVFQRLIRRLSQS
The assay is described as follows: calcineurin pathway inhibitors in yeast reporter, dose response, S. cerevisiae, CDRE-lacZ, luminescence, secondary (AID 2388).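 Further: yeast reporter cells carrying a calcineurin-responsive lacZ construct stimulated with calcium chloride; luminescent beta-galactosidase reporter signal in whole cells rather than isolated phosphatase activity; potency for inhibition where a drop in reporter signal means calcineurin blockade.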 The format is functional, cell-based.

Assay [4] in a line: NIH-3T3 fibroblast cytotoxicity, dose response, cytotoxicity control, cell-based, fluorescence, Alamar Blue, secondary assay (AID 2327).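 Further: NIH-3T3 mouse fibroblasts cultured with fluconazole at 8 µg/mL.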 The format is functional.
Assay [5] deals with T2, Coagulation factor XII (Homo sapiens, UniProt P00748).
T2 sequence (P00748 whole entry): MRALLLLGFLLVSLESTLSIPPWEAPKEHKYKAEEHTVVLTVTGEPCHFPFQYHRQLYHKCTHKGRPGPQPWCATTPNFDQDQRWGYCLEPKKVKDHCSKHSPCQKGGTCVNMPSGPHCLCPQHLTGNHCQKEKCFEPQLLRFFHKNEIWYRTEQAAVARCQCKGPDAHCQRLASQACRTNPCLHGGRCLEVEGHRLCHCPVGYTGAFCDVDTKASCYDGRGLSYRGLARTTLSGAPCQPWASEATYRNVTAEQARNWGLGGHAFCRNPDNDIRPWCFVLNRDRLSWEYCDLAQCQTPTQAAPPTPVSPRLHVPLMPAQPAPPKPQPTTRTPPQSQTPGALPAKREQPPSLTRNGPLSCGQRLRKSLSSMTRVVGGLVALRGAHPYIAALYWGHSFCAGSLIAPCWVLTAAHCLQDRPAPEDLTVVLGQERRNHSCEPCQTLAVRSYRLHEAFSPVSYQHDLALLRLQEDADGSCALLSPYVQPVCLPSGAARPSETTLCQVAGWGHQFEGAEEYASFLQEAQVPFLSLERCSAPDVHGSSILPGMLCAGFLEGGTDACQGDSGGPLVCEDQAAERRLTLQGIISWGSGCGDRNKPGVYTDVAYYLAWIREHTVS
Format: functional.

The target of assay [6] is Prothrombin (Homo sapiens, UniProt P00734). The assay is described as follows: Thrombin 1536 HTS Dose Response Confirmation. [Related pubchem assays: 1046 (Thrombin 1536 HTS; hits were confirmed in this assay)]. Format: functional.
Assay [7] has as its system Streptococcus. The assay is described as follows: Group A Streptococcus viability loss, dose response, counter-screen for streptokinase expression inhibitor project, luminescence, BacTiterGlo (AID 1915).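 Further: potency for reduction of bacterial viability or growth.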 Format: functional, organism-based.
In assay [8] the target is T3, Streptokinase A (Streptococcus pyogenes serotype M1, UniProt P10520).
T3 sequence (P10520 whole entry): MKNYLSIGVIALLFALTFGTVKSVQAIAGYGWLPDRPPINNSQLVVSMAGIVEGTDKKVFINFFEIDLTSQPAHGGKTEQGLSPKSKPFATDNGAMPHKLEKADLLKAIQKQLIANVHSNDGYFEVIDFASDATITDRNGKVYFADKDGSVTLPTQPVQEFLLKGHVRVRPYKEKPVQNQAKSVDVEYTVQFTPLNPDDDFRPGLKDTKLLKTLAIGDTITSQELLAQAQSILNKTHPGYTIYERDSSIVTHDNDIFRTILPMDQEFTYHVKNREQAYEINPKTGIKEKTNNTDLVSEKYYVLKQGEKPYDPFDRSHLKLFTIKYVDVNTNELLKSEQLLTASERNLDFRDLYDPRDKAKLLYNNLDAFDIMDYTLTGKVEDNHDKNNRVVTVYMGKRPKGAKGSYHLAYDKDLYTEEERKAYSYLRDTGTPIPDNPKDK
The assay can be described thus: S. pyogenes streptokinase expression inhibitors, potency, dose response, plasminogen activation absorbance, OD405 (AID 1914).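 Further: secreted streptokinase activity via plasminogen activation per viability signal from cell pellet.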 Format: functional, Streptococcus pyogenes M1 GAS.

Assay [9] relates to Streptococcus sp. 'group A'. The assay can be described thus: growth inhibition of control SK(-) GAS strain, dose response, counter-screen for streptokinase expression inhibitor project, luminescence, kanamycin, BacTiterGlo, confirmation (AID 1900). Format: functional, organism-based.
Assay [10] has as its target Nonstructural protein 1 (Influenza A virus, UniProt Q194T2). Format: functional, Influenza A virus (A/California/07/2009(H1N1)).
Assay [11] concerns H9c2. The assay can be described thus: cells. To be noted: Rattus norvegicus, H9c2, Myocardium. Format: functional, cell-based.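 Further: confirmatory concentration-response retest of ultra-high-throughput screening hits for modulation of myocardial damage; cell death induced by hydrogen peroxide oxidative stress; compound pretreatment for 60 min then peroxide exposure for 2 h; potency is for protecting the cells against peroxide damage rather than for killing them.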
Assay [12] has as its system Vero. The assay is described as follows: cells. Format: functional. To be noted: Chlorocebus sabaeus.
In assay [13] the target is T4, Histone-lysine N-methyltransferase NSD2 (Homo sapiens, UniProt O96028).
T4 sequence (O96028 whole entry): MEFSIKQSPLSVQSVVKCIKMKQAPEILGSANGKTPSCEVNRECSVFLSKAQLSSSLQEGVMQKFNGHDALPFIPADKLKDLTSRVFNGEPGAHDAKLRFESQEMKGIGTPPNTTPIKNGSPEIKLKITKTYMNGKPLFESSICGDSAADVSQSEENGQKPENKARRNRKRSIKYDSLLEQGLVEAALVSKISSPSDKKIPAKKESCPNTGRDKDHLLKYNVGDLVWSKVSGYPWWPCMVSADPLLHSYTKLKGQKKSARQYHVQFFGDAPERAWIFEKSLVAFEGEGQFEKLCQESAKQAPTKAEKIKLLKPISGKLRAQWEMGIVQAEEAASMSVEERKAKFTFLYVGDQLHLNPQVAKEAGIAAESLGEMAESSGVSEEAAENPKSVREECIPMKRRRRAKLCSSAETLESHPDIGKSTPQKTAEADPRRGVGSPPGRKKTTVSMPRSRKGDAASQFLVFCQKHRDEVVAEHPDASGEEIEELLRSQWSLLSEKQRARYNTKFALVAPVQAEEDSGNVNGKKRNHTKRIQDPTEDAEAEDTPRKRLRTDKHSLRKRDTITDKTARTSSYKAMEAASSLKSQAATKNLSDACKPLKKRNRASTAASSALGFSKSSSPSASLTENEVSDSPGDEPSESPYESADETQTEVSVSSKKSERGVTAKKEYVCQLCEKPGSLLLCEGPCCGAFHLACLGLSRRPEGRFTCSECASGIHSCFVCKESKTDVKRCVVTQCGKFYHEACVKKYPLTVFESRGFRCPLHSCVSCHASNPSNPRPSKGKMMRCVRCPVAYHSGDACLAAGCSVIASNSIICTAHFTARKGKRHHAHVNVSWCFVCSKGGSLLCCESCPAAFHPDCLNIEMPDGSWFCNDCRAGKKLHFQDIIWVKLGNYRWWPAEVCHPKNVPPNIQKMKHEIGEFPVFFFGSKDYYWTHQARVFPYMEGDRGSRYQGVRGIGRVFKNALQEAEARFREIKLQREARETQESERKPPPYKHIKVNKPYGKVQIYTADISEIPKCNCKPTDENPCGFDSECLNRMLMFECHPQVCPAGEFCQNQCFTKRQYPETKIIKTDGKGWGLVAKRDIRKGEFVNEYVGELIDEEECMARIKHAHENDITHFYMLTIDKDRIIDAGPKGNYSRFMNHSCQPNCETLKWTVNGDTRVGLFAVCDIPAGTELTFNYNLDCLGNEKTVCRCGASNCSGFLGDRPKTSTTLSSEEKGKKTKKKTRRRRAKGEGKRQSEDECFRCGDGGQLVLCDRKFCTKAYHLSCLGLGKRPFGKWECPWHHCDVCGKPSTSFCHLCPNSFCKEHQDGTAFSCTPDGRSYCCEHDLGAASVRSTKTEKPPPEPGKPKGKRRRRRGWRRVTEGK
The format is biochemical.

Assay [14] addresses Cytochrome P450 2D6 (Homo sapiens, UniProt P10635).
For assay [15], the target named is T5, Mannose-6-phosphate isomerase (Homo sapiens, UniProt P34949).
T5 sequence (P34949 whole entry): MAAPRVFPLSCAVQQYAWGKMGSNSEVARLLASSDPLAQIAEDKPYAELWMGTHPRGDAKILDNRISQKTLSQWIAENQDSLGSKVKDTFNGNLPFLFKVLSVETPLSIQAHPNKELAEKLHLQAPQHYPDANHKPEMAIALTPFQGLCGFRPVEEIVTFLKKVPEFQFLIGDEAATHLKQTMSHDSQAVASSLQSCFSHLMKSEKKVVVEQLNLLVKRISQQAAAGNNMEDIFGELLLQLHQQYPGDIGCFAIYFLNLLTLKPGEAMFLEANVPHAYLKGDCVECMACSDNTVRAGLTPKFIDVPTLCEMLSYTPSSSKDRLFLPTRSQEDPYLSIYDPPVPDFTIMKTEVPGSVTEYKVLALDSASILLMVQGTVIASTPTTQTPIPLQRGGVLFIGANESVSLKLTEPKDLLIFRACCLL
The assay can be described thus: human PMI inhibitors, high substrate, primary screen, biochemical, fluorescence intensity, high mannose 6-phosphate (AID 1220).

Assay [16] has as its target Cytochrome P450 2C19 (Homo sapiens, UniProt P33261). The assay is described as follows: Cytochrome panel assay with activity outcomes. Panel member name: p450-cyp2c19 Compounds with AC50 equal or less than 10 uM are considered active. The format is functional. To be noted: read-out: AC50.
For assay [17], the target named is Cytochrome P450 2C9 (Homo sapiens, UniProt P11712).
Sequence of Cytochrome P450 2C9 (P11712 whole entry): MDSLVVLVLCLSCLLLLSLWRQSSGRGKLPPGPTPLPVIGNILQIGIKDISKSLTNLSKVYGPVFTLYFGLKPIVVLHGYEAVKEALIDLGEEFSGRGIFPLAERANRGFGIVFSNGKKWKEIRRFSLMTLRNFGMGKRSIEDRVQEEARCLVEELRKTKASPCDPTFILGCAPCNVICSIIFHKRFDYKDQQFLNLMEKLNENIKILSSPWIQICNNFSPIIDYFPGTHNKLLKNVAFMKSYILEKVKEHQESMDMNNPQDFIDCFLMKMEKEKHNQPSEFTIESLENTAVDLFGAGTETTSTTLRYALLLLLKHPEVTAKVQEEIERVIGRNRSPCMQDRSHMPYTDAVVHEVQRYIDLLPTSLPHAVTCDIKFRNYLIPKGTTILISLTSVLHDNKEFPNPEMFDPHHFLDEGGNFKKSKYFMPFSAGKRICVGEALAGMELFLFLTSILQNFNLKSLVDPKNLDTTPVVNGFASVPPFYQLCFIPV
Assay [18] is described as follows: cells. Format: functional, cell-based.
A short description of assay [19]: cells. Format: functional, cell-based. The source holds these as a separate data set.

Calls of active or inactive are those of the source.

Sequence of Nonstructural protein 1 (Q194T2 whole entry): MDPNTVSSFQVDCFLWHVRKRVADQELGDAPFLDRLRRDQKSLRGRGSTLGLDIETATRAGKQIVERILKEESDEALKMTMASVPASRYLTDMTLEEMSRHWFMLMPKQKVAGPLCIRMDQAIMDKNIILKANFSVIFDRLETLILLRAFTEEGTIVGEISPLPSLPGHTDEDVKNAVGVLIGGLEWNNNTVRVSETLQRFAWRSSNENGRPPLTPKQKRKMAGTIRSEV
Sequence of Cytochrome P450 2D6 (P10635 whole entry): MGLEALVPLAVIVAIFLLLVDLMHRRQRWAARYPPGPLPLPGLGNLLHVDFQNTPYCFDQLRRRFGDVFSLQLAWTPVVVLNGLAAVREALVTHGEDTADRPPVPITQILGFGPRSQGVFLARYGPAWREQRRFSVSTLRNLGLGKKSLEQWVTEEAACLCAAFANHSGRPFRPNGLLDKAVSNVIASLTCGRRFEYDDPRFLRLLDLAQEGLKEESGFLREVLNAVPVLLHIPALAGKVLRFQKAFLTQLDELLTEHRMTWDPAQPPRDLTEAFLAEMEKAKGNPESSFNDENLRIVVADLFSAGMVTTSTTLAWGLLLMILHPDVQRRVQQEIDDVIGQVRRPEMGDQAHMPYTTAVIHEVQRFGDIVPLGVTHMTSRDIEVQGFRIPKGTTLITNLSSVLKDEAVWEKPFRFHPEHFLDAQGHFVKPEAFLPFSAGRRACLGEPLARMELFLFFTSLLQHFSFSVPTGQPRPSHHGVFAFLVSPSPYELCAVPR
Sequence of Cytochrome P450 2C19 (P33261 whole entry): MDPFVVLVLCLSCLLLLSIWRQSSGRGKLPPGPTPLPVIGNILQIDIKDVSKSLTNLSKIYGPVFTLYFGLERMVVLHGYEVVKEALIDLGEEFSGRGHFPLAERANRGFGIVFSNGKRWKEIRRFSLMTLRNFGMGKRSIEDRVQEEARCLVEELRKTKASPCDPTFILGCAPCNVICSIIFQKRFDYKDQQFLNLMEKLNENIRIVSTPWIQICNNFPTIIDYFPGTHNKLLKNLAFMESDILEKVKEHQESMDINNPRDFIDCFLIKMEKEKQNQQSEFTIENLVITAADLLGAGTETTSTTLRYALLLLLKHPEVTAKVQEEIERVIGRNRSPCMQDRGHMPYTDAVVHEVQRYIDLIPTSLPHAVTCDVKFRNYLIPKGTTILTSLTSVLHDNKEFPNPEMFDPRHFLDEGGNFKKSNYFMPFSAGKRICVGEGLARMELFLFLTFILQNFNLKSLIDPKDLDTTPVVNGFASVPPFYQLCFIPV

Regarding `COc1ccc(-n2nc(C(=O)NCC(=O)N3CCN(c4ccc(F)cc4)CC3)c3ccccc3c2=O)c(OC)c1`, the EC50 in assay [1] was > 150 µM (inactive); in assay [2] it was 0.642 µM (active); in assay [3], > 180 µM (inactive); in assay [4], > 150 µM (inactive).

`Cc1nn(C)c(C)c1S(=O)(=O)N1CCC(C(=O)NCCC2=CCCCC2)CC1`: the IC50 in assay [5] is > 50 µM (inactive); in assay [6] it was > 50 µM (not active).

As for `Cc1cc(C)n(-c2nnc(C)n2NS(=O)(=O)c2ccc(F)cc2)n1`, the IC50 in assay [5] is > 50 µM (inactive).

Take `CS(=O)(=O)c1ccc2nc(NC(=O)c3ccc(NS(=O)(=O)c4cccc([N+](=O)[O-])c4)cc3)sc2c1`: the results for the EC50 in assay [7], in [8] and in [9] were 12 µM (active), > 150 µM (not active) and 2.32 µM (active), respectively. Also, the IC50 in assay [6] is reported as > 50 µM (not active).

Turning to `O=C(O)Cc1ccc(NC(=O)CCN2C(=O)c3ccc([N+](=O)[O-])cc3C2=O)cc1`, in [5], the IC50 is > 50 µM (inactive).

Regarding `CCOc1ccc(OCC)c(NC(=O)CCS(=O)(=O)c2ccc(Br)s2)c1`, the IC50 in [6] was 3.1 µM (active).

On to `O=C1SCCC1NC(=O)C(c1ccccc1)c1ccccc1` (stereo unspecified), for which, in assay [5], the IC50 was > 50 µM (inactive).

For the molecule `Cc1nnc2c(-c3ccccc3)nc3ccccc3n12`, in assay [6], the IC50 is reported as > 50 µM (not active).

For the molecule `O=C(c1cc2ccccc2cc1O)N1CCN(c2ccccc2O)CC1`, the EC50 in [1] was > 150 µM (inactive); in assay [7], 110 µM (active); in assay [2] it was 0.274 µM (active); in assay [8] it was > 150 µM (not active); in assay [3], > 180 µM (inactive); in assay [9], 24.3 µM (active). Besides, the EC50 in [4] is > 150 µM (inactive).

As for `Cc1ccccc1NC(=O)Nc1ccccc1Br`, in [6], the IC50 is listed as > 50 µM (not active).

Consider `O=[N+]([O-])c1ccc(O)c(Nc2c([N+](=O)[O-])ccc3nonc23)c1`, for which the IC50 in [10] is 64.5 µM (active).

As to `O=c1oc(-c2ccco2)nc2c1cnn2-c1ccccc1`, the IC50 in assay [5] was 18.2 µM (active); in [11], > 79 µM (inactive).

For `O=C(CC1CCCC1)NNC(=O)c1ccccc1O`, the CC50 in [12] was > 25 µM (active).

Regarding `Nc1cccc2cnccc12`, the AC50 in assay [13] is > 20 µM (inactive); in [14], 22.4 µM (inconclusive); in assay [16], 20 µM (inconclusive); in assay [17], 28.2 µM (inconclusive). For the same molecule, the IC50 in assay [15] is > 50 µM (not active).

As for `Cc1[nH]n(-c2ccccc2)c(=O)c1N=Nc1ccc2c(c1)OCCO2`, the EC50 in assay [18] and in [19] was > 350 µM (not active) each time. In assay [10], the IC50 was 41.2 µM (active).

For the molecule `O=C(CCc1ccc(O)cc1)N/N=C/c1coc2ccccc2c1=O`, the IC50 in [6] was 6.25 µM (active).
